Measured values reported in paper PMC4901077, “Development and Identification of a Novel Anti-HIV-1 Peptide Derived by Modification of the N-Terminal Domain of HIV-1 Integrase” (Frontiers in Microbiology, 2016).
Like-named read-outs stand apart in the source and are kept apart here. Marks after values point to notes of the source that are not given here. Peptide text beside a SMILES is read from it.

Columns and labels:
[1] = target: T1, Full-length recombinant HIV-1 integrase (Human immunodeficiency virus type 1 group M subtype B, UniProt P04585); assay: HIV-1 IN activity inhibition assay (Xpressbio HIV-1 IN Assay kit, 3'-processing/strand transfer); assay type: biochemical
T1 construct: Full-length recombinant HIV-1 integrase protein was then loaded onto this oligo substrate; purchased Xpressbio Life Science Products (Express Biotech International)
Procedure: Express Biotech International Company performed this assay using its HIV-1 IN Assay kit (Xpressbio Life Science Products, USA. www.xpressbio.com). Briefly, Streptavidin coated 96-well plates were coated with a double-stranded HIV-1 LTR U5 donor substrate (DS) oligonucleotide containing an end-labeled biotin. Full-length recombinant HIV-1 integrase protein was then loaded onto this oligo substrate. Compounds were added to the reaction and then a different double-stranded target substrate (TS) oligo containing 3′-end modifications was added to the plate. The sequence of DS DNA and TS DNA substrates used in this assay were
respectively (Hazuda et al., [1994] and Engelman et al., [1993]). The HIV-1 IN cleaves the terminal two bases from the exposed 3′-end of the HIV-1 LTR DS and then catalyzes a strand-transfer reaction to integrate the DS into the TS. The products of the reaction were detected colorimetrically using an HRP-labeled antibody directed against the TS 3′-end modification. Percent inhibition in the IN assay was calculated and IC50 values were determined.

[2] = target: T2, HIV-1 IN-IN subunit exchange (Human immunodeficiency virus type 1 group M subtype B, UniProt P04585); assay: HTRF-based IN subunit exchange assay (IN-IN dimerization); assay type: binding; conditions: for IC50: concentration required to inhibit the HIV-1 IN-IN subunit exchange by 50%, HTRF, His- and FLAG-tagged IN; for IN-IN subunit exchange, percentage of control: measured in the presence of 100 μM concentration
T2 construct: Full-length IN and LEDGF proteins were expressed in E. coli BL21(DE3); made in house; host or cells: E. coli BL21(DE3)
Procedure: (§1) Full-length IN and LEDGF proteins were expressed in E. coli BL21(DE3) and were purified as described (Kessl et al., [2012]; Esposito et al., [2015]; Tintori et al., [2015]). His- and FLAG-tagged INs, were mixed in 25 mM Tris (pH 7.4) buffer containing 150 mM NaCl, 2 mM MgCl2, 0.1% Nonidet P-40, 1 mg/ml BSA. Test compounds were then added to the mixture. A mixture of anti-His6-XL665 and anti-FLAG-EuCryptate antibodies were then added to the reaction and, after an incubation, the plate are read and the HTRF signal is calculated from the 665/620 nm ratio.
(§2) In this assay two IN preparation are used: a first His-tagged IN preparation, and a second Flag-tagged IN preparation. In both preparations the purified IN is at equilibrium as a dimer; such dimers go through monomers exchange. […] The formation of this “hybrid” dimer can be monitored in the HTRF-based assay as described (Esposito et al., [2015]; Tintori et al., [2015]). When the assay is performed in the presence of a compound inhibiting dimerization, the HTRF signal decreases as the concentration of compound increases, whereas in the presence of a compound promoting IN multimerization (association of dimers) the HTRF signal increases as the concentration of the compound increases.

HIV-1 IN multimerization = target: T3, HIV-1 IN multimerization (Human immunodeficiency virus type 1 group M subtype B, UniProt P04585); assay: HTRF-based IN multimerization assay; assay type: binding; conditions: for EC50: concentration stimulating the Multimerization Increase by 50%, HTRF, read-out: IN-multim MI50; for IN multimerization signal, % of control at 100 µM: measured in the presence of 100 μM concentration, read-out: IN-multim, percentage of control
T3 construct: Full-length IN and LEDGF proteins were expressed in E. coli BL21(DE3); made in house; host or cells: E. coli BL21(DE3)
Procedure: as §1, §2

[3] = Table 1, colorimetric HRP read-out, ±SD, read-out: IN inhibition IC50(μM) ±SD
[4] = Table 2, colorimetric HRP read-out, read-out: IN inhibition IC50

Compound	IC50 [1, 3]	IC50 [2]	IN-IN subunit exchange, percentage of control [2]	EC50 (HIV-1 IN multimerization)	IN multimerization signal, % of control at 100 µM (HIV-1 IN multimerization)	IC50 [1, 4]
Ac-VVAKEIVAH-NH2 [Peptide 18]	4.5 ± 0.9 µM	> 100 µM	>100 (100%)^b	> 100 µM	100%	–
CCCC(C(=O)O)c1c(C)nc2ccc(Cl)cc2c1-c1ccccc1 (stereo not drawn) [LEDGIN-6, reference compound]	–	> 100 µM	>100 (100%)	10 ± 1 µM	–	–
Ac-GIDKAQDEHE-NH2 [Peptide 2]	162 ± 9 µM	–	–	–	–	–
Ac-VVAKAIVAH-NH2 [Peptide 25]	–	> 100 µM	>100 (100%)	4.8 ± 0.4 µM	–	13 ± 1 µM
CC[C@H](C)[C@H](NC(=O)[C@H](CCC(=O)O)NC(=O)[C@H](CCCCN)NC(C)=O)C(=O)N[C@H](C(=O)N[C@@H](C)C(=O)N[C@@H](CO)C(=O)N[C@@H](CS)C(=O)N[C@@H](CC(=O)O)C(=O)N[C@@H](CCCCN)C(=O)N[C@@H](CS)C(N)=O)C(C)C [Peptide 12] (Ac-KEIVASCDKC-NH2)	477 ± 23 µM	–	–	–	–	–
Ac-VVAAEIVAH-NH2 [Peptide 24]	–	32 ± 3 µM	–	> 100 µM	100%	20.8 ± 1.3 µM
Ac-VFAKEIVAH-NH2 [Peptide 20]	–	–	–	–	–	375 ± 19 µM
Ac-VVAKEIFAH-NH2 [Peptide 21]	–	–	–	–	–	504 ± 22 µM
Ac-DFNLPPVVAK-NH2 [Peptide 9]	213 ± 12 µM	–	–	–	–	–
